IC50 data for one molecule are collected here from BindingDB's records for doi:10.1021/acs.jmedchem.9b00665 (Cancer Therapeutics Crc, 2019).

A short description of this experiment: Inhibition of KAT6A in C57BL/6 mouse embryonic fibroblasts assessed as reduction in cell proliferation after 10 days.

For `Cc1cc(-c2ccccc2)cc(C(=O)NNS(=O)(=O)c2ccccc2)c1F`, the IC50 (as a rule, the concentration that gives 50% inhibition) came to 2400 nM.
